This experiment concerns the target T1, SIRT1 (Homo sapiens, UniProt Q96EB6).
T1 sequence (Q96EB6 1-747): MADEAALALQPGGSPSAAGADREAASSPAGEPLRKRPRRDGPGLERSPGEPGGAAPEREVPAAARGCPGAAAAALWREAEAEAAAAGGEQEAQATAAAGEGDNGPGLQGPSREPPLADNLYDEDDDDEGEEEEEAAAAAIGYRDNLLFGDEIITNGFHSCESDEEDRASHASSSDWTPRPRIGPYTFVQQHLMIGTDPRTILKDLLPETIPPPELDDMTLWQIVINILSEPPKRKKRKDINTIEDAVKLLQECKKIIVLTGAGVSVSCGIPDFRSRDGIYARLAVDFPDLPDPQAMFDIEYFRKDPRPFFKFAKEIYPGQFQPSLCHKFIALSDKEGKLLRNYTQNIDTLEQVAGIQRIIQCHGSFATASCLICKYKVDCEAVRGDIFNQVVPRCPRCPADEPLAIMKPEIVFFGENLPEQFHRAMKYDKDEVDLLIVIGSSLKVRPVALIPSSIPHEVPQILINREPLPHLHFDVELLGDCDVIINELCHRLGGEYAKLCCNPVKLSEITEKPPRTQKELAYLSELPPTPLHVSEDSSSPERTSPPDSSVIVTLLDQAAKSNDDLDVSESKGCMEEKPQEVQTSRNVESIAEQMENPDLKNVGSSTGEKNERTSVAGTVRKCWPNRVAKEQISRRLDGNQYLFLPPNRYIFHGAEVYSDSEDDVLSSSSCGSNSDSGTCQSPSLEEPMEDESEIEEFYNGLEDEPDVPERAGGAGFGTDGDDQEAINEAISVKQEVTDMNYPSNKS
The experiment in a line: SIRT1 mass spectrometry (MS) based deacetylation assay. Type of experiment: biochemical. Conditions: for EC50: read-out: ED50 MS ASSAY.

The mark [1] stands for this setting: SIRT1 activation, mass spectrometry assay.
Where [2] appears, read: fold activation of SIRT1 as determined by MS.
[3] abbreviates: fold activation of SIRT1, mass spectrometry assay.
The mark [4] stands for this setting: Sirt1 activators, fold activation as determined by MS.
Where [5] appears, read: Sirt1 activators, mass spectrometry assay.
[6] abbreviates: SIRT1 fold activation as determined by MS.

The structures appear in SMILES notation. Read-outs that look alike come from different tables or passages of the source. Some results are limits rather than exact numbers.

For the compound `COc1cc(C(=O)Nc2ccccc2-c2cn3ccsc3n2)cc(OC)c1OC` [Compound 204], the EC50 under setting [1] is less than 5 µM. For the same compound, under setting [2], the “FOLD ACT. MS” value is given as “A (A (Fold activation >250%))”.

Take `COc1ccc(C(=O)Nc2ccc(-c3nc4ccccc4[nH]3)cc2)c(OC)c1` [Compound 262]: the EC50 under setting [1] is less than 5 µM. Under setting [3], the “FOLD ACT. MS” value is on record as “B (B (Fold Activation <250%))”.

For `COc1ccc(C(=O)Nc2cccc(-c3nc4ccncc4o3)c2)c(OC)c1` [Compound 429], the EC50 under setting [1] was less than 5 µM. In addition, the “FOLD ACT. MS” value under setting [3] is recorded as “B (B (Fold Activation <250%))”.

Take `O=S(=O)(Nc1cc(-c2nc3ncccc3o2)ccn1)c1ccc(Cl)cc1` [Compound 652]: the 50% inhibitory concentration (IC50) (Sirt1 Inhibitors, mass spectrometry assay) lay within 51 to 100 µM.

Regarding `O=C(Nc1cccc(-c2nc3ccncc3s2)c1)c1ccc(Oc2ccccc2)nc1` [Compound 306], the EC50 under setting [1] was in the range of 5 to 50 µM. Further, under setting [3], the “FOLD ACT. MS” value is reported as “B (B (Fold Activation <250%))”.

With `O=C(Nc1ccccc1-c1cn2c(CN3CCNCC3)csc2n1)c1ccc2c(c1)OCO2` [Compound 329], the EC50 under setting [1] was in the range of 5 to 50 µM. Also, the “FOLD ACT. MS” value under setting [3] is “A (A (Fold activation >250%))”.

Consider `O=C(Nc1ccccc1-c1cn2c(n1)CCCC2)c1ccc2ccccc2n1` [Compound 547], for which the “FOLD ACT. MS” value under setting [4] was “B (B (Fold Activation <250%))”. In addition, under setting [5], the EC50 is less than 5 µM.

As to `COc1cc(C(=O)Nc2cc(-c3nc4ncccc4o3)ccn2)cc(OC)c1OC` [Compound 75], the EC50 under setting [1] lay in the range of 5 to 50 µM. Besides, under setting [2], the “FOLD ACT. MS” value is reported as “B (B (Fold Activation <250%))”.

As for `O=C(Nc1ccccc1-c1cn2c(CN3CCN(Cc4ccccc4)CC3=O)csc2n1)c1cnc2ccccc2n1` [Compound 628], the “FOLD ACT. MS” value under setting [4] was “B (B (Fold Activation <250%))”. Also, the EC50 under setting [5] was less than 5 µM.

`COc1cc(C(=O)Nc2ccccc2-c2nc3cccnc3[nH]2)ccc1CN1CCCC1` [Compound 535]: the “FOLD ACT. MS” value under setting [4] was “A (A (Fold activation >250%))”. Moreover, the EC50 under setting [5] was in the range of 5 to 50 µM.

Turning to `O=C(Nc1ccccc1-c1cn2c(CN3CCNCC3)csc2n1)c1cnc2ccccc2n1` [Compound 441], under setting [1], the EC50 was less than 5 µM. The “FOLD ACT. MS” value under setting [3] is “A (A (Fold activation >250%))”.

With `COc1ccc(C(=O)Nc2ccc(-c3nc4ncccc4s3)cc2)cc1OC` [Compound 197], under setting [1], the EC50 was less than 5 µM. Also, the “FOLD ACT. MS” value under setting [2] is “B (B (Fold Activation <250%))”.

Turning to `O=C(Nc1cccc(-c2nc3ccncc3s2)c1)c1ccco1` [Compound 221], under setting [1], the EC50 lay in the range of 5 to 50 µM. Further, the “FOLD ACT. MS” value under setting [3] is “B (B (Fold Activation <250%))”.

Consider `O=C(Nc1ccccc1-c1cn2c(CN3CCNCC3)csc2n1)c1ccccc1` [Compound 328], for which, under setting [1], the EC50 lay within 51 to 100 µM. In addition, under setting [3], the “FOLD ACT. MS” value is recorded as “A (A (Fold activation >250%))”.

For `CN(C)c1cccc(C(=O)Nc2ccc(-c3nc4ncccc4s3)cc2)c1` [Compound 196], the EC50 under setting [1] lay within 5 to 50 µM. Also, the “FOLD ACT. MS” value under setting [2] was “B (B (Fold Activation <250%))”.

In the case of `COc1cc(C)ccc1C(=O)Nc1ccc(-c2nc3cccnc3[nH]2)cc1` [Compound 149], the EC50 under setting [1] was less than 5 µM. Moreover, under setting [2], the “FOLD ACT. MS” value was “B (B (Fold Activation <250%))”.

`COc1cc(C(=O)Nc2ccc(-c3nc4cnccc4o3)s2)cc(OC)c1OC` [Compound 426]: under setting [1], the EC50 is less than 5 µM. Also, the “FOLD ACT. MS” value under setting [3] was “B (B (Fold Activation <250%))”.

Consider `O=C(Nc1ccccc1-c1cn2c(CN3CCNCC3)csc2n1)c1cccc2cccnc12` [Compound 692], for which, under setting [1], the EC50 is 101 to 150 µM. Under setting [6], the “FOLD ACT. MS” value was “B (B (Fold Activation <250%))”.

With `COc1cc(C(=O)Nc2ccccc2-c2nc3ccccc3n2C)cc(OC)c1OC` [Compound 313], the EC50 under setting [1] lay in the range of 5 to 50 µM. Besides, the “FOLD ACT. MS” value under setting [3] is on record as “B (B (Fold Activation <250%))”.

`COc1cc(C(=O)Nc2ccccc2-c2nc3ccncc3o2)cc(OC)c1OC` [Compound 457]: under setting [1], the EC50 lay in the range of 5 to 50 µM. Moreover, under setting [3], the “FOLD ACT. MS” value is “B (B (Fold Activation <250%))”.

In the case of `O=C(Nc1ccccc1-c1cn2c(CN3CCNCC3)csc2n1)c1cccnc1F` [Compound 744], the EC50 under setting [1] was 51 to 100 µM. Moreover, the “FOLD ACT. MS” value under setting [6] is reported as “A (A (Fold activation >250%))”.

On to `COc1cc(OC)cc(C(=O)Nc2ccccc2-c2nc3ccccc3[nH]2)c1` [Compound 141], for which the EC50 under setting [1] was less than 5 µM. Besides, under setting [2], the “FOLD ACT. MS” value is recorded as “B (B (Fold Activation <250%))”.

Take `O=C(Nc1ccccc1-c1nc2ncccc2o1)c1ccc(Oc2ncccn2)cc1` [Compound 668]: the “FOLD ACT. MS” value under setting [4] is “B (B (Fold Activation <250%))”. The EC50 under setting [5] is 5 to 50 µM.

For the compound `O=C(CCc1ccccc1)Nc1ccccc1-c1nc2ccncc2s1` [Compound 460], the EC50 under setting [5] was in the range of 5 to 50 µM.

For the compound `O=C(Nc1cccc(-c2nc3ccncc3s2)c1)c1cccs1` [Compound 223], the EC50 under setting [1] was less than 5 µM. Moreover, the “FOLD ACT. MS” value under setting [3] was “B (B (Fold Activation <250%))”.

Regarding `CN(C)c1cccc(C(=O)Nc2ccccc2-c2nc3cnccc3s2)c1` [Compound 321], the EC50 under setting [1] is less than 5 µM. In addition, the “FOLD ACT. MS” value under setting [3] is “B (B (Fold Activation <250%))”.

Regarding `COc1cc(C(=O)Nc2cccc(-c3cn4ccc(C)cc4n3)c2)cc(OC)c1OC` [Compound 129], under setting [1], the EC50 was less than 5 µM. For the same compound, the “FOLD ACT. MS” value under setting [2] is given as “A (A (Fold activation >250%))”.

As to `COc1ccc(C(=O)Nc2ccccc2-c2cc3ccccc3[nH]2)cc1OC` [Compound 254], the EC50 under setting [1] is less than 5 µM. Also, the “FOLD ACT. MS” value under setting [3] was “B (B (Fold Activation <250%))”.

For `CN(C)c1cccc(C(=O)Nc2cccc(-c3nc4ccncc4s3)c2)c1` [Compound 113], under setting [1], the EC50 lay within 5 to 50 µM. Also, the “FOLD ACT. MS” value under setting [2] was “B (B (Fold Activation <250%))”.

Regarding `COc1cc(C(=O)Nc2cccc(-c3cn4cccnc4n3)c2)cc(OC)c1OC` [Compound 218], under setting [1], the EC50 is less than 5 µM. Besides, the “FOLD ACT. MS” value under setting [3] is reported as “A (A (Fold activation >250%))”.

In the case of `CN(C)CCNC(=O)c1cc(NC(=O)c2cccc(N(C)C)c2)cc(-c2nc3ncccc3o2)c1` [Compound 154], the EC50 under setting [1] lay in the range of 101 to 150 µM. Under setting [2], the “FOLD ACT. MS” value is “A (A (Fold activation >250%))”.

On to `COc1ccc(S(=O)(=O)Nc2cccc(-c3nc4ncccc4o3)n2)cc1OC` [Compound 60], for which the EC50 under setting [1] lay in the range of 5 to 50 µM.

Take `COc1ccc(C(=O)Nc2ccccc2-c2nc3cccnc3[nH]2)cc1C(F)(F)F` [Compound 528]: the “FOLD ACT. MS” value under setting [4] was “B (B (Fold Activation <250%))”. Also, under setting [5], the EC50 is less than 5 µM.

Regarding `O=C(Nc1ccccc1-c1cn2c(CN3CC(F)(F)C3)csc2n1)c1cnc2ccccc2n1` [Compound 717], the EC50 under setting [1] was 5 to 50 µM. Also, the “FOLD ACT. MS” value under setting [6] is listed as “B (B (Fold Activation <250%))”.

Turning to `O=C(Nc1ccccc1-c1cn2c(CN3CCNCC3)csc2n1)c1ccc2occc2c1` [Compound 338], the EC50 under setting [1] fell in the range of 5 to 50 µM. The “FOLD ACT. MS” value under setting [3] is “A (A (Fold activation >250%))”.

Turning to `COc1cc(C)ccc1C(=O)Nc1cccc(-c2nc3ncccc3s2)c1` [Compound 199], the EC50 under setting [1] was less than 5 µM. Also, the “FOLD ACT. MS” value under setting [2] is listed as “B (B (Fold Activation <250%))”.

For the compound `COc1cc(OC)cc(C(=O)Nc2ccccc2-c2nc3cnccc3o2)c1` [Compound 404], under setting [1], the EC50 is less than 5 µM. Further, the “FOLD ACT. MS” value under setting [3] is listed as “B (B (Fold Activation <250%))”.

As to `COc1cccc(OC)c1C(=O)Nc1cccc(-c2nc3ccccc3o2)c1` [Compound 119], under setting [1], the EC50 was in the range of 5 to 50 µM. Also, the “FOLD ACT. MS” value under setting [2] was “B (B (Fold Activation <250%))”.

For the origin of these results see patent publication US8044198B2, “Sirtuin modulating compounds” (Sirtris Pharmaceuticals, Inc., priority 2005, dated 2011).
